{"source": "patent US9278956B1", "about": "“Small-molecule inhibitors of Rac1 in metastatic cancer cells” (University of Puerto Rico, priority 2012, dated 2016)", "key": {"[1]": {"tested_on": "Rac", "assay": "Rac.GTP pull-down (GST-PAK1 p21 binding domain), MDA-MB-231 cells", "format": "cell-based, human", "details": "read-out: IC50 for inhibition of Rac activity", "description": "(§1) Rho, Rac, and Cdc42 activities were analyzed from MDA-MB-435 cell lysates by pulldown assays using GST-Rho binding domain from Rhotekin to isolate active GTP bound Rho, and a GST-p21 binding domain of PAK1 to isolate active Rac.GTP or Cdc42.GTP. Active and total Rho GTPases were identified by western blotting with specific antibodies: anti RhoA, anti Rac (1,2,3), anti Rac3, or anti Cdc42 (Cell Signaling Technology, Inc., Danvers, Mass.).\n(§2) Cell lysates or pulldowns were western blotted using routine laboratory procedures. Anti-RhoA, -Rac (1,2,3), -Cdc42, -p-PAK^Thr423 antibodies were from Cell Signaling Technology, Inc., Danvers, Mass. Anti Vav2 was from Zymed, San Francisco, Calif.; and Rac3, PAK1, Tiam-1, and Trio antibodies were from Santa Cruz Biotechnology, Inc., Santa Cruz, Calif."}, "[2]": {"tested_on": "MDA-MB-435 cells", "assay": "Transwell cell migration assay", "format": "cell-based, human", "details": "2 and 5 μM, 24 h treatment, 4 h migration", "description": "Quiescent MDA-MB-435 cells were treated with vehicle or varying concentrations of EHop-016 (0-5 μM) for 24 hrs. Exactly 2×10^5 cells were placed on the top well of Transwell chambers (Corning Life Sciences, Lowell, Mass.) with media containing 10% FBS in the bottom well. The number of cells that migrated to the underside of the membrane following 4 h incubation was quantified for each treatment."}, "[3]": {"target": "T1, Cdc42 (Homo sapiens, UniProt P60953)", "T1 construct": "endogenous in cells; host or cells: MDA-MB-435", "assay": "Cdc42-GTP pull-down, MDA-MB-435 cells", "format": "cell-based", "description": "as §1, §2"}, "[4]": {"target": "Tiam-1 DH/PH domain / Rac1(G15A) (Homo sapiens, UniProt P63000, G15A)", "assay": "Interaction of purified Tiam-1 DH/PH domain with Rac1(G15A) beads"}, "[5]": {"tested_on": "Rac", "assay": "Rac.GTP pull-down (GST-PAK1 p21 binding domain), MDA-MB-435 cells", "format": "cell-based, human", "description": "as §1, §2"}, "[6]": {"target": "T2, RhoA (Homo sapiens, UniProt P61586)", "T2 construct": "endogenous in cells; host or cells: MDA-MB-435", "assay": "RhoA-GTP pull-down (GST-Rhotekin Rho binding domain), MDA-MB-435 cells", "format": "cell-based", "details": "2, 4, 5, or 10 μM", "description": "as §1, §2"}, "[7]": {"tested_on": "MCF-10A cells", "assay": "MTT cell viability assay, MCF-10A mammary epithelial cells", "format": "cell-based", "description": "(§3) […] Cell viability was measured using the MTT [3-(4,5-dimethylthiazol-2-yl)-2,5-diphenyl tetrazolium bromide] cell survival and proliferation kit (Millipore, Inc., Billerica, Mass.) according to manufacturer's instructions."}, "[8]": {"target": "T3, Vav2 association with Rac1(G15A) (Homo sapiens, UniProt P63000, G15A)", "T3 construct": "purchased Cell Biolabs, San Diego, Calif; host or cells: Vav2: endogenous, MDA-MB-435 lysate", "assay": "Precipitation of activated GEFs with GST-Rac1(G15A) from MDA-MB-435 lysates (Vav2)", "format": "binding", "details": "1 h, p<0.005, read-out: association of Vav2 with Rac1(G15A), compared to controls", "description": "MDA-MB-435 cells in culture media were lysed in 1% Triton X-100, 20 mM HEPES, pH 7.4, 150 mM NaCl, 5 mM MgCl2, and protease inhibitors and processed. Equal amounts of protein from clarified lysates were incubated for 1 h at 4° C. with glutathione agarose beads conjugated to GST-Rac1(G15A) nucleotide free mutant (Cell Biolabs, San Diego, Calif.), that were pre-incubated (for 1 h) with vehicle or 2 or […] EHop-016. The beads were washed and the lysates and pulldowns immunoblotted for Tiam-1, Trio, or Vav2."}, "[9]": {"target": "Rac1 (Homo sapiens, UniProt P63000)", "assay": "G-LISA Rac1 activation assay on MDA-MB-435 cell lysates", "set-up": "selectivity among Rho GTPases: dose or concentration left out as unconfirmed"}, "[10]": {"assay": "Body weight and gross toxicity in athymic nude mice", "format": "in vivo", "details": "oral and intraperitoneal, 1 mg/kg once a week for 9 weeks; preliminary"}, "[11]": {"tested_on": "MDA-MB-435 cells", "assay": "MTT cell viability assay, MDA-MB-435", "format": "cell-based, human", "description": "as §3"}, "[12]": {"tested_on": "MDA-MB-231 cells", "assay": "MTT cell viability assay, MDA-MB-231", "format": "cell-based, human"}, "[13]": {"tested_on": "MDA-MB-435 cells", "assay": "Lamellipodia formation by fluorescence microscopy (Rhodamine phalloidin), MDA-MB-435", "format": "cell-based, human"}, "[14]": {"tested_on": "MDA-MB-231 cells", "assay": "Lamellipodia formation by fluorescence microscopy (Rhodamine phalloidin), MDA-MB-231", "format": "cell-based, human", "details": "4 μM, 24 h, control close to 100%", "description": "Metastatic human cancer cell lines MDA-MB-435 and MDA-MB-231 (in DMEM with 10% FBS) were treated with vehicle (0.1% DMSO) or EHop-016 at 2 and 4 μM for 24 hrs. Cells were fixed, permeabilized, and stained with Rhodamine phalloidin to visualize F-actin."}, "[15]": {"target": "T4, Rac3 (Homo sapiens, UniProt P60763)", "T4 construct": "endogenous in cells; host or cells: MDA-MB-435", "assay": "Rac3-GTP pull-down, MDA-MB-435 cells", "format": "cell-based", "description": "as §1, §2"}, "[16]": {"tested_on": "PAK1", "assay": "PAK1 activity by Western blot for phospho-Thr 423, MDA-MB-435 cells", "format": "cell-based, human", "details": "both 2 and 4 μM, 24 h", "description": "as §2\nThe effect of EHop-016 on Rac action was also determined by analyzing the activity of the Rac downstream effector PAK that regulates Rac-mediated lamellipodia extension and directed cell migration. […] Since Rac/PAK signaling regulates directed cell migration, the effect of EHop-016 at 0-5 μM was determined on migration of MDA-MB-435 cells by using a Transwell assay. As shown in FIG. 6(B), treatment with 2 and 5 μM EHop-016 reduced directed cell migration by ˜60% at concentrations that reduced Rac activity by ˜80% as shown in FIG. 2 and FIGS. 4A-4E. It is possible that Rac may not be the only regulator of cell migration in this highly invasive cancer cell line."}, "[17]": {"target": "Trio (Homo sapiens, UniProt O75962)", "details": "cited from earlier work"}, "[18]": {"target": "Rac (Homo sapiens, UniProt P63000)", "details": "cited from earlier work"}, "[19]": {"tested_on": "Rac", "details": "fibroblasts; read-out: IC50 as Rac inhibitor in fibroblasts; cited from earlier work"}, "[20]": {"tested_on": "Rac", "details": "cited from earlier work"}}, "note": "Where two headings read alike, the source gives them in different places.", "data": [{"smiles": "CCn1c2ccccc2c2cc(Nc3ccnc(NCCCN4CCOCC4)n3)ccc21", "note": "[EHop-016, N^4-(9-Ethyl-9H-carbazol-3-yl)-N2-(3-morpholin-4-yl-propyl)-pyrimidine-2,4-diamine]", "values": [{"measurement": "IC50", "setting": "[1]", "value": "~3", "unit": "µM"}, {"measurement": "reduction of directed cell migration", "setting": "[2]", "value": "~60", "unit": "%"}, {"measurement": "effect on Cdc42 activity", "setting": "[3]; 2 or 4 μM", "value": "did not affect"}, {"measurement": "inhibition at 5 µM", "setting": "[3]; MDA-MB-435, 5 μM", "value": 28, "unit": "%"}, {"measurement": "inhibition at 10 µM", "setting": "[3]; MDA-MB-435, 10 μM", "value": 74, "unit": "%"}, {"measurement": "concentration at which Tiam-1 DH/PH-Rac1(G15A) interaction is inhibited", "setting": "[4]", "value": 40, "unit": "µM"}, {"measurement": "effect on interaction of Tiam-1 DH/PH domain with Rac1(G15A)", "setting": "[4]; 5 μM", "value": "did not affect"}, {"measurement": "inhibition at 50 µM", "setting": "[4]; read-out: inhibition of Tiam-1/Rac1(G15A) interaction", "value": 64, "unit": "%"}, {"measurement": "inhibition of Rac activity", "setting": "[5]; 2 μM", "value": 79, "unit": "%"}, {"measurement": "inhibition of Rac activity", "setting": "[5]; 4 μM", "value": 93, "unit": "%"}, {"measurement": "increase of RhoA activity", "setting": "[6]", "value": "~1.3", "unit": "fold"}, {"measurement": "decrease in cell number compared to controls", "setting": "[7]; 5 μM, MCF-10A, only a trend", "value": "~30", "unit": "%"}, {"measurement": "cell viability remaining", "setting": "[7]; 10 μM, MCF-10A", "value": "~50", "unit": "%"}, {"measurement": "effect on cell viability", "setting": "[7]; 25 μM, MCF-10A", "value": "significant reduction"}, {"measurement": "effect on cell viability", "setting": "[7]; 1 or 2 μM, MCF10A", "value": "did not significantly affect"}, {"measurement": "remaining activity at 4 µM", "setting": "[8]", "value": "~50", "unit": "%"}, {"measurement": "potency relative to other currently available Rac inhibitors", "setting": "[9]", "value": "10-50 times"}, {"measurement": "selectivity among Rho GTPases", "setting": "[9]", "value": "specific for Rac1 and Rac3"}, {"measurement": "reduction of Rac activity", "setting": "[9]; 2 and 5 μM", "value": "~80", "unit": "%"}, {"measurement": "potency relative to NSC23766", "setting": "[9]; MDA-MB-435 cells", "value": "approximately 100 times"}, {"measurement": "IC50", "setting": "[9]; read-out: IC50 for inhibition of Rac1 activity, MDA-MB-435 cells, 24 h treatment", "value": 1.1, "unit": "µM"}, {"measurement": "body weight and gross toxicity", "setting": "[10]", "value": "no change in body weight or gross indications of toxicity"}, {"measurement": "decrease in cell number compared to controls", "setting": "[11]; 5 μM, MDA-MB-435, only a trend", "value": "~30", "unit": "%"}, {"measurement": "cell viability remaining", "setting": "[11]; 10 μM, MDA-MB-435", "value": "~50", "unit": "%"}, {"measurement": "effect on cell viability", "setting": "[11]; 25 μM, MDA-MB-435", "value": "significant reduction"}, {"measurement": "effect on cell viability", "setting": "[11]; 1 or 2 μM, MDA-MB-435", "value": "did not significantly affect"}, {"measurement": "effect on cell viability", "setting": "[11]; low concentrations (<5 μM)", "value": "does not affect"}, {"measurement": "effect on cell viability", "setting": "[12]; 25 μM", "value": "significant reduction"}, {"measurement": "effect on cell viability", "setting": "[12]; 1 or 2 μM", "value": "did not significantly affect"}, {"measurement": "effect on extension of filopodia", "setting": "[13]; 2 and 4 μM", "value": "did not affect"}, {"measurement": "cells that extended lamellipodia", "setting": "[13]; both 2 and 4 μM, 24 h, MDA-MB-435, control close to 100%", "value": "~30", "unit": "%"}, {"measurement": "cells that extended lamellipodia", "setting": "[14]", "value": "~30", "unit": "%"}, {"measurement": "inhibition at 1 µM", "setting": "[15]", "value": 58, "unit": "%"}, {"measurement": "effect on PAK activity (phospho-Thr 423 PAK1)", "setting": "[16]", "value": "dramatically inhibits"}]}, {"smiles": "Cc1cc(/C=c2/sc3nc4ccccc4n3c2=O)c(C)n1-c1ccccc1", "note": "[ITX3]", "values": [{"measurement": "effective concentration", "setting": "[17]", "value": "50 to 100", "unit": "µM"}]}, {"smiles": "O=C(C#Cc1ccccc1)c1cccc([N+](=O)[O-])c1", "note": "[MLS000532223]", "values": [{"measurement": "effect on GTP binding to Rac", "setting": "[18]", "value": "prevents GTP binding to Rac"}]}, {"smiles": "CCN(CC)CCCC(C)Nc1nc(C)cc(Nc2ccc3nc(C)cc(N)c3c2)n1", "note": "(stereo not shown) [NSC23766, reference compound]", "values": [{"measurement": "IC50", "setting": "[19]", "value": "50 to 100", "unit": "µM"}, {"measurement": "effect on lamellopodia formation", "setting": "[13]; 50 μM, MDA-MB-435", "value": "no significant effect"}]}, {"smiles": "O=c1cc(CN2CCOCC2)occ1OCCCCCSc1ccnc2cc(C(F)(F)F)ccc12", "note": "[EHT 1864]", "values": [{"measurement": "concentration interfering with Rac-downstream effector interaction", "setting": "[20]", "value": "10 to 50", "unit": "µM"}, {"measurement": "effective concentration as Rac inhibitor", "setting": "[20]", "value": 10, "unit": "µM"}]}]}
